# Key:
# Type in all cases: in vivo
# nitrite/nitrate (NOx) = assay: Nitrite/nitrate level in blood, rats with gastric injury without inflammation; settings: 1.11 mmol/kg, vs control group H, FIG. 25
# Procedure: The levels of plasma nitrite/nitrate (NOx), stable end products of NO were measured by the Griess reaction. This assay depends on the reduction of nitrate to nitrite, which is then converted into a colored azo dye compound that is detected spectrophotometrically at 540 nm.
# Further experiments regarding the effect of a compound of formula (I) and a pharmaceutical composition comprising a compound of formula (I), respectively, on gastric injury without inflammation were conducted on rats. 15 animals were randomly allocated into three groups. Group H (n=5) served as sham-operated controls. Samples of all animals were drawn on day 1 of the clinical tests. On day 2 the animals of group I (n=5) were force-fed acetylsalicylic acid (ASS) (1.11 mmol/kg body weight). Group K (n=5) was force-fed 1.11 mmol/kg body weight of the compound according to the invention. Group H only received the respective solvent (25% ethanol in water). One day after the gavage, additional samples were drawn. Fluorescence confocal endomicroscopy was performed to examine the microvasculature and morphologic changes of the mucosa of the distal colon, and full-thickness tissue samples and venous blood samples were taken to determine the biochemical changes in the colon and plasma. The effects were determined by way of measurement of body weight, blood gas analysation and biopsy. […]
# gastric mucosa = assay: Macroscopic analysis (score) of gastric mucosa damage, mice; settings: 1.11 mmol/kg, vs groups A and C, FIG. 10
# Procedure: First experiments regarding the effect of the compound of formula (I) and a pharmaceutical composition comprising the compound of formula (I) (clear aqueous solution of compound of formula (I) at pH 4.8), respectively, on gastric injury without inflammation were conducted on mice. 48 animals were randomly allocated into three groups. Group A (n=16) served as sham-operated controls. Samples of all animals were drawn on day 1 of the clinical tests. On day 2 the animals of group B (n=16) were force-fed acetylsalicylic acid (ASS) (1.11 mmol/kg body weight). Group C (n=16) was force-fed 1.11 mmol/kg body weight of the compound according to the invention. Group A only received the respective solvent (25% ethanol in water). One day after the gavage, additional samples were drawn. Fluorescence confocal endomicroscopy was performed to examine the microvasculature and morphologic changes of the mucosa of the distal colon, and full-thickness tissue samples and venous blood samples were taken to determine the biochemical changes in the colon and plasma. The effects were determined by way of measurement of body weight, blood gas analysation and biopsy. […]
# The average of the three criteria is calculated for the animals of each group, wherein “0” means for criteria 1 small or no bleeding area, for criteria 2 no bleeding area and for criteria 3 no ulcer. […]
# [1] = system: collagen-induced arthritis (CIA); assay: Collagen-induced arthritis (CIA), thermal stimulation (inflammatory hyperalgesia); settings: mice with CIA, 1.11 mmol/kg force-fed, vs untreated arthritis group 2, FIG. 37
# Procedure: Further clinical studies were performed with animals having collagen-induced arthritis (CIA). In these studies, mice were used as test animals. At the age of eight weeks, the animals were immunized intradermally at the base of the tail with 50 μl of bovine collagen II emulsified in 50 μl of complete Freund's adjuvant. A second booster immunization was performed 3 weeks later, when 50 μl of incomplete Freund's adjuvant was administered with or without the same volume of collagen H. The animals were randomly allocated into experimental groups wherein group 1 served as control, having no arthritis, group 2 served as second control having arthritis, but receiving no further treatment, and group 3 having arthritis and being treated with compound according to the invention. The animals of group 3 were force-fed 1.11 mmol/kg body weight of the compound according to the invention from the first immunization until the end of the experiments. The severity of CIA was evaluated using a clinical scoring system; inflammatory hyperalgesia was detected with thermal stimulation.
# The animals were acclimatized to the experimental conditions for 1 hour preceding the test. Then they were placed onto a heating plate set to 40° C. to assess their thermal hypersensitivity. […]
# [2] = system: High mobility group box protein 1 (HMGB-1); assay: Plasma high-mobility group protein B1, rats with TNBS-induced colitis; settings: 1.11 mmol/kg, day 3, FIG. 31
# Procedure: Colonic inflammation was induced by intracolonic administration of TNBS (2,4,6-trinitrobenzenesulfonic acid) (40 mg/kg in 0.25 ml of 25% aqueous ethanol) through an 8-cm-long soft plastic catheter under transient diethylether anesthesia. In the sham-operated groups, only the vehicle for TNBS was administered. The animals were deprived of food, but not water, for 12 h before the enemas.
# High mobility group box protein 1 (HMGB-1) measurements in plasma:
# Blood samples were drawn into chilled polypropylene tubes containing EDTA (1 mg/ml) and were centrifuged at 1200 g for 10 min at 4° C. The plasma samples were then collected and stored at −70° C. until assay. Plasma concentration of HMGB-1 was measured by a commercially available HMGB-1 ELISA kit (Shino-Test Corporation, Kanagawa, Japan).
# The above-described clinical studies were repeated with animals having colitis which was induced as described above. […] Two days after the enema the effects of the treatment were determined by measurement of body weight, blood gas analysis and biopsy. […] Surgery was performed to allow registration of the hemodynamic parameters at 1 h intervals for 6 h (cardiac output [CO] data were measured only at the end of the experiments). […]
SMILES,nitrite/nitrate level in the blood (nitrite/nitrate (NOx)),macroscopic analysis of the mucosa (score) (gastric mucosa),"thermosensitivity (thermal stimulation score, 40° C. heating plate) [1]",concentration of the high-mobility group protein B1 in the plasma [2]
"CC(=O)Oc1ccccc1C(=O)O [ASS, acetylsalicylic acid, reference compound]",increased nitrite/nitrate level,significant damage of the mucosa,,
CC(=O)Oc1ccccc1C(=O)NC(CO)(CO)CO [compound according to the invention],,,significantly lower thermosensitivity,significant reduction

# Source: patent US20160326098A1, “Pharmaceutically Active Compound for Use as Anti-inflammatory Agent” (Pax Forschung GmbH, priority 2013, published 2016)
